Results on 15 compounds are retold here after PubChem BioAssay (NCI).

Among the test systems are OVCAR-4 ovarian; BT-549 breast; HOP-62 NSCLC; SW-620 colon; MDA-MB-435; RPMI-8226 leukemia; A549 NSCLC; TK-10 renal; SK-MEL-28 melanoma; KM12 colon; OVCAR-5 ovarian; UACC-62 melanoma.
Holding throughout (assay): NCI anticancer screen, dose series, 48 h

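Grown in 96-well plates, cells were treated for 48 hours with each compound at five concentrations. Insufficient inhibition: endpoint recorded as highest concentration tested. TGI: concentration producing complete growth inhibition.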 Where only a bound is given, the exact number is not on record here.

Regarding `COC(=O)/C=C\C(C#N)(C#N)N=Cc1ccc(Br)cc1`, the TGI in the assay on OVCAR-4 ovarian was 23.7 µM; in the assay with BT-549 breast, 25.2 µM; with HOP-62 NSCLC, 33.4 µM; in the assay on SW-620 colon it was greater than 22.4 µM; in the assay with MDA-MB-435, 22.4 µM; with RPMI-8226 leukemia, 5.74 µM. The TGI is greater than 74.8 µM in the assay on A549 NSCLC; 6.59 µM in the assay on TK-10 renal; 32.1 µM with SK-MEL-28 melanoma; 29.3 µM in the assay on KM12 colon; 35.8 µM in the assay with OVCAR-5 ovarian; 16.5 µM in the assay with UACC-62 melanoma.

In the case of `O=C(NNc1nc(-c2ccccc2)cs1)Nc1ccccc1`, the TGI in the assay on OVCAR-4 ovarian was 88.5 µM; in the assay on BT-549 breast, 60.9 µM; with HOP-62 NSCLC, 56.8 µM; in the assay on SW-620 colon, greater than 100 µM; with MDA-MB-435, 65.8 µM; in the assay with RPMI-8226 leukemia, 44.2 µM. Besides, the TGI was 48 µM in the assay with A549 NSCLC; 48.6 µM in the assay with TK-10 renal; 85.6 µM in the assay with SK-MEL-28 melanoma; greater than 100 µM in the assay with KM12 colon; greater than 100 µM in the assay on OVCAR-5 ovarian; 40.2 µM in the assay with UACC-62 melanoma.

`CC(C)=CCC[C@@H](C)C1=C(O)C(Nc2ccccc2)=C(C)C(=O)C1=O`: the TGI with OVCAR-4 ovarian was greater than 100 µM; in the assay on BT-549 breast, greater than 100 µM; in the assay with HOP-62 NSCLC, greater than 55.2 µM; in the assay on SW-620 colon it was greater than 100 µM; in the assay on MDA-MB-435, greater than 100 µM; with RPMI-8226 leukemia, greater than 73.3 µM. Further, the TGI was 45.5 µM in the assay on A549 NSCLC; greater than 100 µM in the assay with TK-10 renal; greater than 100 µM in the assay on SK-MEL-28 melanoma; greater than 100 µM in the assay on KM12 colon; greater than 100 µM in the assay on OVCAR-5 ovarian; 54.5 µM in the assay with UACC-62 melanoma.

With `COC(=O)C(CNC(=O)/C=C/c1ccc(OC(C)=O)c(OC(C)=O)c1)NC(=O)/C=C/c1ccc(OC(C)=O)c(OC(C)=O)c1` (stereo not given), the TGI in the assay with OVCAR-4 ovarian, with BT-549 breast, in the assay with HOP-62 NSCLC, with SW-620 colon, in the assay with MDA-MB-435 and in the assay with RPMI-8226 leukemia was greater than 100 µM throughout. For the same compound, the TGI with A549 NSCLC, in the assay with TK-10 renal, in the assay on SK-MEL-28 melanoma, in the assay on KM12 colon, in the assay with OVCAR-5 ovarian and in the assay on UACC-62 melanoma was greater than 100 µM each time.

For `CC(C)(CO)CNc1cc(Cl)nc(N)n1`, the TGI in the assay on OVCAR-4 ovarian, with BT-549 breast, in the assay with HOP-62 NSCLC, in the assay on SW-620 colon, with MDA-MB-435 and with RPMI-8226 leukemia was greater than 100 µM each time. Moreover, the TGI in the assay on A549 NSCLC, in the assay on TK-10 renal, in the assay with SK-MEL-28 melanoma, with KM12 colon, in the assay on OVCAR-5 ovarian and with UACC-62 melanoma was greater than 100 µM each time.

`O=C1c2cc3ncsc3cc2C(=O)c2c(O)ccc(O)c21`: the TGI in the assay with OVCAR-4 ovarian, with BT-549 breast, in the assay with HOP-62 NSCLC, in the assay with SW-620 colon, in the assay with MDA-MB-435 and with RPMI-8226 leukemia was greater than 100 µM in each case. Besides, the TGI in the assay with A549 NSCLC, in the assay with TK-10 renal, with SK-MEL-28 melanoma, in the assay on KM12 colon, in the assay on OVCAR-5 ovarian and with UACC-62 melanoma was greater than 100 µM throughout.

In the case of `CCOC(=O)C1=C(C)N(Cc2ccccc2)C2(O)C(OC)CC(=O)C3C(=O)N(c4ccccc4)C(=O)C132` (stereo not given), the TGI with OVCAR-4 ovarian is 18.4 µM; with BT-549 breast it was 24.3 µM; in the assay with HOP-62 NSCLC, greater than 100 µM; in the assay on SW-620 colon, greater than 100 µM; with MDA-MB-435, greater than 100 µM; in the assay with RPMI-8226 leukemia, greater than 100 µM. Besides, the TGI with A549 NSCLC was greater than 100 µM; with TK-10 renal it was 53 µM; in the assay with SK-MEL-28 melanoma, 23.3 µM; in the assay on KM12 colon it was 55.6 µM; in the assay on OVCAR-5 ovarian, greater than 100 µM; with UACC-62 melanoma it was 21.6 µM.

On to `C=C1CC(O)C2C(=C)C(=O)OC2C2C(C)C(=O)CC12` (stereo not given), for which the TGI with OVCAR-4 ovarian is 37.8 µM; in the assay on BT-549 breast, 21.5 µM; in the assay with HOP-62 NSCLC, 42.7 µM; in the assay with SW-620 colon, 30.7 µM; in the assay with MDA-MB-435, 33.1 µM; with RPMI-8226 leukemia it was 39.2 µM. The TGI turned out to be 41 µM in the assay with A549 NSCLC; 18.7 µM in the assay with TK-10 renal; 46.5 µM in the assay with SK-MEL-28 melanoma; 56.9 µM with KM12 colon; 30.1 µM in the assay with OVCAR-5 ovarian; 29.1 µM in the assay on UACC-62 melanoma.

As to `Cc1oc2nc(N(C)C)n3cnnc3c2c1C`, the TGI in the assay on OVCAR-4 ovarian, with BT-549 breast, in the assay with HOP-62 NSCLC, with SW-620 colon, in the assay with MDA-MB-435 and in the assay with RPMI-8226 leukemia was greater than 100 µM each time. Further, the TGI with A549 NSCLC, in the assay with TK-10 renal, in the assay with SK-MEL-28 melanoma, in the assay with KM12 colon, in the assay on OVCAR-5 ovarian and with UACC-62 melanoma was greater than 100 µM in each case.

`OCC(S)CS.[Bi]` (stereo not given): the TGI in the assay on OVCAR-4 ovarian is 69.2 µM; with BT-549 breast, 27.8 µM; in the assay on HOP-62 NSCLC, 50.9 µM; with SW-620 colon, greater than 100 µM; in the assay on MDA-MB-435, 35.6 µM; in the assay with RPMI-8226 leukemia, 28.3 µM. The TGI in the assay with A549 NSCLC was greater than 100 µM; in the assay with TK-10 renal it was 32.4 µM; in the assay with SK-MEL-28 melanoma, 28.3 µM; with KM12 colon, 46.2 µM; in the assay with OVCAR-5 ovarian, 42.5 µM; in the assay on UACC-62 melanoma it was 38.5 µM.

`CCC(C)N1CN(c2ccccc2)C2(CCN(CCCC3(c4ccc(F)cc4)OCCO3)CC2)C1=O` (stereo not given): the TGI in the assay on OVCAR-4 ovarian was greater than 49.4 µM; in the assay with BT-549 breast, 5.82 µM; in the assay with HOP-62 NSCLC, 27.6 µM; in the assay on SW-620 colon, 28.8 µM; in the assay on MDA-MB-435, 45.6 µM; in the assay on RPMI-8226 leukemia, 4 µM. In addition, the TGI with A549 NSCLC was 23.2 µM; in the assay with TK-10 renal, 20.7 µM; with SK-MEL-28 melanoma it was 34.4 µM; with KM12 colon, greater than 50.6 µM; in the assay on OVCAR-5 ovarian, 22.4 µM; in the assay on UACC-62 melanoma, greater than 55.2 µM.

`Cc1nccn1S(=O)(=O)c1ccc(Cl)cc1`: the TGI with OVCAR-4 ovarian is greater than 100 µM; in the assay on BT-549 breast, greater than 100 µM; with HOP-62 NSCLC it was greater than 100 µM; in the assay on SW-620 colon, greater than 100 µM; in the assay on MDA-MB-435, 48.8 µM; with RPMI-8226 leukemia, greater than 100 µM. Moreover, the TGI in the assay on A549 NSCLC, with TK-10 renal, in the assay with SK-MEL-28 melanoma, in the assay with KM12 colon, with OVCAR-5 ovarian and with UACC-62 melanoma was greater than 100 µM in each case.

As to `NNS(=O)(=O)c1ccc(/C=C2\NC(=O)NC2=O)cc1`, the TGI in the assay on OVCAR-4 ovarian, in the assay on BT-549 breast, with HOP-62 NSCLC, in the assay on SW-620 colon, with MDA-MB-435 and with RPMI-8226 leukemia was greater than 100 µM each time. Also, the TGI in the assay with A549 NSCLC, in the assay with TK-10 renal, in the assay with SK-MEL-28 melanoma, with KM12 colon, with OVCAR-5 ovarian and in the assay with UACC-62 melanoma was greater than 100 µM each time.

Take `Nc1ccn(CC(O)c2cc3ccccc3[nH]2)c(=O)n1` (stereo not given): the TGI in the assay with OVCAR-4 ovarian, in the assay on BT-549 breast, with HOP-62 NSCLC, with SW-620 colon, with MDA-MB-435 and in the assay with RPMI-8226 leukemia was greater than 100 µM each time. The TGI with A549 NSCLC, with TK-10 renal, with SK-MEL-28 melanoma, with KM12 colon, with OVCAR-5 ovarian and with UACC-62 melanoma was greater than 100 µM each time.

On to `Cc1cc(S(=O)(=O)Nc2n[nH]c(Nc3ccccc3)n2)c(SSc2cc(Cl)c(C)cc2S(=O)(=O)Nc2n[nH]c(Nc3ccccc3)n2)cc1Cl`, for which the TGI in the assay with OVCAR-4 ovarian, in the assay on BT-549 breast, in the assay with HOP-62 NSCLC, in the assay with SW-620 colon, in the assay with MDA-MB-435 and with RPMI-8226 leukemia was greater than 100 µM each time. The TGI in the assay with A549 NSCLC, in the assay with TK-10 renal, in the assay with SK-MEL-28 melanoma, with KM12 colon, with OVCAR-5 ovarian and in the assay with UACC-62 melanoma was greater than 100 µM throughout.
